Results reported in patent US20260325533A1, “CDK INHIBITOR COMPOUNDS” (ALEKSIA THERAPEUTICS, INC., priority 2023, published 2026).
Read-outs that look alike come from different tables or passages of the source. Blank lines part the entries; values can stand above or below the compound they belong to.

Columns and labels:
Format in all cases: biochemical
CDK2/CCNE1 = CDK2/CCNE1 (Homo sapiens, UniProt P24941); experiment: CDK2 homogeneous time-resolved fluorescence (HTRF) kinase assay; settings: CDK2/CCNE
Procedure, shortened: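 3 nM CDK2/CCNE1 was preincubated with compound for 20 min at 23 °C in HEPES buffer (pH not stated), then reacted 60 min with 1 mM ATP and 50 nM ULight-4E-BP1 (Thr37/46) peptide. After EDTA stop, Eu-anti-phospho-4E-BP1 antibody (2 nM) was added for 60 min and TR-FRET read at 665 nm.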

CDK1/CCNB1 = CDK1/CCNB1 (Homo sapiens, UniProt P06493); experiment: CDK1 homogeneous time-resolved fluorescence (HTRF) kinase assay; settings: CDK1/CCNB
Chain of CDK1/CCNB1 (P06493 whole entry): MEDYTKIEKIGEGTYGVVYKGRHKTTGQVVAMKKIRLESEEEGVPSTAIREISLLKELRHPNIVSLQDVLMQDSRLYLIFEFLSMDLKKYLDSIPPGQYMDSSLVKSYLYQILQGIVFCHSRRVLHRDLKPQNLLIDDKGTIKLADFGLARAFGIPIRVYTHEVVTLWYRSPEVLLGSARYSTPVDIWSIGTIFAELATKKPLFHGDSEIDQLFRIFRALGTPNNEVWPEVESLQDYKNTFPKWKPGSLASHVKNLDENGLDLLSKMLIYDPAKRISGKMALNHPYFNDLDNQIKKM
Chain of CDK1/CCNB1 (P14635 whole entry partner): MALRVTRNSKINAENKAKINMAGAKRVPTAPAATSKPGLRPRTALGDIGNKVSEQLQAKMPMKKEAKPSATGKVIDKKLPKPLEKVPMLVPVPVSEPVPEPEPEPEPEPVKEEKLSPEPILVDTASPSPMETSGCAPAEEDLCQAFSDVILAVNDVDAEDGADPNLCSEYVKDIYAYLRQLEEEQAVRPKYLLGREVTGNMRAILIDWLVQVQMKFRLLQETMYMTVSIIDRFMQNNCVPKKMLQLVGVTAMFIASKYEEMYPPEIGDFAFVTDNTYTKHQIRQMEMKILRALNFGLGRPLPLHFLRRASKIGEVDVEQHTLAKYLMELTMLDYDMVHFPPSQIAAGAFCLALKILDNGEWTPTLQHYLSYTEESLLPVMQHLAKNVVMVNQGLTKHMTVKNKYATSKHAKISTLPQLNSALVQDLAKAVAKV
Procedure, shortened: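 0.5 nM CDK1/CCNB1 was preincubated 20 min at 23 °C with compound in HEPES pH-unspecified buffer (MgCl2, EGTA, DTT, Tween 20), then reacted 60 min with 1 mM ATP and 50 nM ULight-4E-BP1 (Thr37/46) peptide. EDTA-stopped reactions were detected with 2 nM Eu-anti-phospho antibody; IC50 from 11-point half-log titrations.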

CDK4/CCND3 = CDK4/CCND3 (Homo sapiens, UniProt P11802); experiment: CDK4 homogeneous time-resolved fluorescence (HTRF) kinase assay; settings: CDK4/CCND
Chain of CDK4/CCND3 (P11802 whole entry): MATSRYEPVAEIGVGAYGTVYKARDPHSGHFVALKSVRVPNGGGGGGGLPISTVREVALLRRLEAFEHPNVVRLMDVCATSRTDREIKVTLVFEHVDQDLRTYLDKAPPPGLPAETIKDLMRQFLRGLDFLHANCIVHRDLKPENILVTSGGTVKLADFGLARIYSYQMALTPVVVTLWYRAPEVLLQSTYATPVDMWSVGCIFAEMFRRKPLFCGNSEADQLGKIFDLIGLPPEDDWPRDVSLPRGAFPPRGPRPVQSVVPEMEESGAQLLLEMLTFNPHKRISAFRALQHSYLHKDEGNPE
Chain of CDK4/CCND3 (P30281 whole entry partner): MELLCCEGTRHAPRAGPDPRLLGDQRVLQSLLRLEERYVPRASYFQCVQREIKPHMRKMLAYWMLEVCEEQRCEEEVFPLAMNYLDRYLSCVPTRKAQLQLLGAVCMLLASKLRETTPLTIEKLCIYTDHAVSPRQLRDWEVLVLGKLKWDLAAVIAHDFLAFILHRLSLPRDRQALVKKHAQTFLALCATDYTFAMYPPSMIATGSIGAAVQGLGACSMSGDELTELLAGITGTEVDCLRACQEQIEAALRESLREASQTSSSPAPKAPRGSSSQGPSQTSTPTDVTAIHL
Procedure, shortened: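 Inhibition of CDK4/CCND3 (1.5 nM) was measured at high ATP (1 mM) using 50 nM ULight-labelled 4E-BP1 Thr37/46 peptide; detection used 2 nM europium anti-phospho antibody after EDTA quench. IC50 values came from 11-point half-log titrations typically starting at 10 μM.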

CDK6/CCND1 = CDK6/CCND1 (Homo sapiens, UniProt Q00534); experiment: CDK6 homogeneous time-resolved fluorescence (HTRF) kinase assay; settings: CDK6/CCND
Chain of CDK6/CCND1 (Q00534 whole entry): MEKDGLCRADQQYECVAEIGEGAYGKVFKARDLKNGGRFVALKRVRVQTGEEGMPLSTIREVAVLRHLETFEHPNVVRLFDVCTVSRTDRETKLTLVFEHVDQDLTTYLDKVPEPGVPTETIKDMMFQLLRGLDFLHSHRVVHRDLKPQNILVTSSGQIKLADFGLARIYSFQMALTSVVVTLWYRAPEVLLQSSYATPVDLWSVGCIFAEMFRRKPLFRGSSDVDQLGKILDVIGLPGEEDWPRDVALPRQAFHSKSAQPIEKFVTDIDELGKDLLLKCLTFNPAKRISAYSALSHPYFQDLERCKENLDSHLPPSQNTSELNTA
Chain of CDK6/CCND1 (P24385 whole entry partner): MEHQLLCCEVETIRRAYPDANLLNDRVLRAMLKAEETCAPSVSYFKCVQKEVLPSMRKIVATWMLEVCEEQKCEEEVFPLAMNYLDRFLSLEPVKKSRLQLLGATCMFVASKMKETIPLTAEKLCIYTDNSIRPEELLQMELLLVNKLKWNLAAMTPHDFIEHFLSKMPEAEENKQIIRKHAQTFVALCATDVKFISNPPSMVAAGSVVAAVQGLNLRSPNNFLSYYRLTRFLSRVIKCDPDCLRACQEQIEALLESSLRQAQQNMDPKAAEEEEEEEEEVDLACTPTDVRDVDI
Procedure, shortened: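 1 nM enzyme, 1 mM ATP, 50 nM ULight-4E-BP1 (Thr37/46) peptide, 1% DMSO; 20 min compound preincubation, 60 min reaction, 23 °C. EDTA stop, 2 nM Eu-anti-phospho-4E-BP1 antibody 60 min. TR-FRET 665 nm (or 665/615 ratio); IC50 from 11-point half-log titration, top 10 μM.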

[1] = <25 nM, read-out: CDK2/CCNE IC50, <25 nM
[2] = 25-250 nM, read-out: CDK1/CCNB IC50, 25-250 nM
[3] = 25-250 nM, 1 mM ATP, read-out: CDK6/CCND IC50, 25-250 nM
[4] = <25 nM, read-out: CDK2/CCNE IC50 <25 nM
[5] = >250 nM marked x, read-out: CDK1/CCNB IC50 >250 nM
[6] = >250 nM, read-out: CDK1/CCNB IC50 >250 nM
[7] = >250 nM, read-out: CDK4/CCND IC50, >250 nM
[8] = >250 nM, 1 mM ATP, read-out: CDK6/CCND IC50, >250 nM
[9] = x = IC50 25-250 nM, read-out: CDK2/CCNE IC50 (25-250 nM)
[10] = x = IC50 >250 nM, read-out: CDK1/CCNB IC50 (>250 nM column)
[11] = x = IC50 >250 nM, read-out: CDK4/CCND IC50 (>250 nM column)
[12] = x = IC50 >250 nM, read-out: CDK6/CCND IC50 (>250 nM column)
[13] = 25-250 nM, read-out: CDK2/CCNE IC50, 25-250 nM

- IC50 (CDK2/CCNE1; [1]): < 25 nM
- IC50 (CDK1/CCNB1; [2]): 25 to 250 nM
- IC50 (CDK4/CCND3; 25-250 nM, read-out: CDK4/CCND IC50, 25-250 nM): 25 to 250 nM
- IC50 (CDK6/CCND1; [3]): 25 to 250 nM
Structure (SMILES): Cc1c(-c2nccc3cnc(Nc4ccc(NS(=O)(=O)c5ccn(C)n5)cc4)cc23)ccc2c1cnn2CC(C)(C)O [Ex 832, N-(4-((5-(1-(2-hydroxy-2-methylpropyl)-4-methyl-1H-indazol-5-yl)-2,6-naphthyridin-3-yl)amino)phenyl)-1-methyl-1H-pyrazole-3-sulfonamide]

- IC50 (CDK2/CCNE1; >250 nM, read-out: CDK2/CCNE IC50, >250 nM): > 250 nM
- IC50 (CDK1/CCNB1; [6]): > 250 nM
- IC50 (CDK4/CCND3; [7]): > 250 nM
- IC50 (CDK6/CCND1; [8]): > 250 nM
Structure (SMILES): Cc1ccccc1NS(=O)(=O)c1ccc(Nc2cc3c(-c4ccc5c(cnn5CC(O)(C(F)(F)F)C(F)(F)F)c4C)nccc3cn2)cc1 [Ex 715, 4-((5-(4-methyl-1-(3,3,3-trifluoro-2-hydroxy-2-(trifluoromethyl)propyl)-1H-indazol-5-yl)-2,6-naphthyridin-3-yl)amino)-N-(o-tolyl)benzenesulfonamide]

- IC50 (CDK2/CCNE1; [13]): 25 to 250 nM
- IC50 (CDK1/CCNB1; [6]): > 250 nM
- IC50 (CDK4/CCND3; [7]): > 250 nM
- IC50 (CDK6/CCND1; [8]): > 250 nM
Structure (SMILES): Cc1oncc1S(=O)(=O)Nc1ccc(Nc2cc3c(-c4ccc5c(cnn5CC(C)(C)O)c4C)nccc3cn2)cc1 [Ex 833, N-(4-((5-(1-(2-hydroxy-2-methylpropyl)-4-methyl-1H-indazol-5-yl)-2,6-naphthyridin-3-yl)amino)phenyl)-5-methylisoxazole-4-sulfonamide]

- IC50 (CDK2/CCNE1; [1]): < 25 nM
- IC50 (CDK1/CCNB1; [2]): 25 to 250 nM
- IC50 (CDK4/CCND3; [7]): > 250 nM
- IC50 (CDK6/CCND1; [8]): > 250 nM
Structure (SMILES): Cc1c(-c2nccc3cnc(Nc4ccc(S(=O)(=O)Nc5cccc(C(F)(F)F)n5)cc4)cc23)ccc2c1cnn2CC(C)(C)O [Ex 815, 4-((5-(1-(2-hydroxy-2-methylpropyl)-4-methyl-1H-indazol-5-yl)-2,6-naphthyridin-3-yl)amino)-N-(6-(trifluoromethyl)pyridin-2-yl)benzenesulfonamide]

- IC50 (CDK2/CCNE1; [13]): 25 to 250 nM
- IC50 (CDK1/CCNB1; [6]): > 250 nM
- IC50 (CDK4/CCND3; [7]): > 250 nM
- IC50 (CDK6/CCND1; [8]): > 250 nM
Structure (SMILES): Cc1c(-c2nccc3cnc(Nc4ccc(S(=O)(=O)Nc5cccc(C(F)(F)F)n5)cc4)cc23)ccc2c1cnn2CC(O)(C(F)(F)F)C(F)(F)F [Ex 720, 4-((5-(4-methyl-1-(3,3,3-trifluoro-2-hydroxy-2-(trifluoromethyl)propyl)-1H-indazol-5-yl)-2,6-naphthyridin-3-yl)amino)-N-(6-(trifluoromethyl)pyridin-2-yl)benzenesulfonamide]

- IC50 (CDK2/CCNE1; [1]): < 25 nM
- IC50 (CDK1/CCNB1; [6]): > 250 nM
- IC50 (CDK4/CCND3; [7]): > 250 nM
- IC50 (CDK6/CCND1; [3]): 25 to 250 nM
Structure (SMILES): Cc1c(-c2nccc3cnc(Nc4ccc(S(=O)(=O)Nc5ccc(C(C)(C)O)cn5)cc4)cc23)ccc2c1cnn2CC(C)(C)O [Ex 810, 4-((5-(1-(2-hydroxy-2-methylpropyl)-4-methyl-1H-indazol-5-yl)-2,6-naphthyridin-3-yl)amino)-N-(5-(2-hydroxypropan-2-yl)pyridin-2-yl)benzenesulfonamide]

- IC50 (CDK2/CCNE1; [1]): < 25 nM
- IC50 (CDK1/CCNB1; [6]): > 250 nM
- IC50 (CDK4/CCND3; [7]): > 250 nM
- IC50 (CDK6/CCND1; [8]): > 250 nM
Structure (SMILES): Cc1c(-c2nccc3cnc(Nc4ccc(NS(=O)(=O)c5nccs5)cc4)cc23)ccc2c1cnn2CC(C)(C)O [Ex 748, N-(4-((5-(1-(2-hydroxy-2-methylpropyl)-4-methyl-1H-indazol-5-yl)-2,6-naphthyridin-3-yl)amino)phenyl)thiazole-2-sulfonamide]

- IC50 (CDK2/CCNE1; [1]): < 25 nM
- IC50 (CDK1/CCNB1; [6]): > 250 nM
- IC50 (CDK4/CCND3; [7]): > 250 nM
- IC50 (CDK6/CCND1; [8]): > 250 nM
Structure (SMILES): Cc1c(-c2nccc3cnc(Nc4ccc(S(=O)(=O)Nc5nccc(N6CCN(C)CC6)n5)cc4)cc23)ccc2c1cnn2CC(C)(C)O [Ex 892, 4-((5-(1-(2-hydroxy-2-methylpropyl)-4-methyl-1H-indazol-5-yl)-2,6-naphthyridin-3-yl)amino)-N-(4-(4-methylpiperazin-1-yl)pyrimidin-2-yl)benzenesulfonamide]

Continued, compound first:

Structure (SMILES): COc1cc(S(=N)(=O)C2CC2)ccc1Nc1cc2c(C#Cc3ccc4c(c3)NC(=O)C43CC3)nccc2cn1 (single isomer, unassigned) [Ex 278, 6'-((7-((4-(cyclopropanesulfonimidoyl)-2-methoxyphenyl)amino)-2,6-naphthyridin-1-yl)ethynyl)spiro[cyclopropane-1,3'-indolin]-2'-one]
- IC50 (CDK2/CCNE1; [4]): < 25 nM
- IC50 (CDK1/CCNB1; [5]): > 250 nM
- IC50 (CDK4/CCND3; >250 nM marked x, read-out: CDK4/CCND IC50 >250 nM): > 250 nM
- IC50 (CDK6/CCND1; >250 nM marked x, read-out: CDK6/CCND IC50 >250 nM): > 250 nM

Structure (SMILES): CC1(O)C(=O)Nc2cc(C#Cc3nccc4cnc(Nc5ccc(S(C)(=O)=O)cc5)cc34)ccc21 (racemic) [Example 362, 3-hydroxy-3-methyl-6-((7-((4-(methylsulfonyl)phenyl)amino)-2,6-naphthyridin-1-yl)ethynyl)indolin-2-one]
- IC50 (CDK2/CCNE1; x = IC50 <25 nM, read-out: CDK2/CCNE IC50 (<25 nM)): < 25 nM
- IC50 (CDK1/CCNB1; x = IC50 25-250 nM, read-out: CDK1/CCNB IC50 (25-250 nM)): 25 to 250 nM
- IC50 (CDK4/CCND3; x = IC50 25-250 nM, read-out: CDK4/CCND IC50 (25-250 nM)): 25 to 250 nM
- IC50 (CDK6/CCND1; x = IC50 25-250 nM, read-out: CDK6/CCND IC50 (25-250 nM)): 25 to 250 nM

Structure (SMILES): COC(=O)N1CCC(C#Cc2nccc3cnc(Nc4ccc(S(C)(=O)=O)cc4)cc23)CC1 [Ex 653, methyl 4-((7-((4-(methylsulfonyl)phenyl)amino)-2,6-naphthyridin-1-yl)ethynyl)piperidine-1-carboxylate]
- IC50 (CDK2/CCNE1; [9]): 25 to 250 nM
- IC50 (CDK1/CCNB1; [10]): > 250 nM
- IC50 (CDK4/CCND3; [11]): > 250 nM
- IC50 (CDK6/CCND1; [12]): > 250 nM

Structure (SMILES): Cc1c(-c2nccc3cnc(Nc4ccc(S(C)(=O)=O)c(C(F)(F)F)c4)cc23)ccc2c1cnn2CC(C)(C)O [Ex 844, 2-methyl-1-(4-methyl-5-(7-((4-(methylsulfonyl)-3-(trifluoromethyl)phenyl)amino)-2,6-naphthyridin-1-yl)-1H-indazol-1-yl)propan-2-ol]
- IC50 (CDK2/CCNE1; [13]): 25 to 250 nM
- IC50 (CDK1/CCNB1; [6]): > 250 nM
- IC50 (CDK4/CCND3; [7]): > 250 nM
- IC50 (CDK6/CCND1; [8]): > 250 nM

Structure (SMILES): CS(=O)(=O)N1CCC(Nc2cc3c(-c4ccc5ocnc5c4)nccc3cn2)CC1 [Ex 70, 5-(benzo[d]oxazol-5-yl)-N-(1-(methylsulfonyl)piperidin-4-yl)-2,6-naphthyridin-3-amine]
- IC50 (CDK2/CCNE1; [4]): < 25 nM
- IC50 (CDK1/CCNB1; [5]): > 250 nM
- IC50 (CDK4/CCND3; 25-250 nM marked x, read-out: CDK4/CCND IC50 25-250 nM): 25 to 250 nM
- IC50 (CDK6/CCND1; <25 nM, read-out: CDK6/CCND IC50 <25 nM): < 25 nM

Structure (SMILES): CS(=O)(=O)c1ccc(Nc2cc3c(C#Cc4cc(F)cc(C#N)c4)nccc3cn2)cc1 [Ex 571, 3-fluoro-5-((7-((4-(methylsulfonyl)phenyl)amino)-2,6-naphthyridin-1-yl)ethynyl)benzonitrile]
- IC50 (CDK2/CCNE1; [9]): 25 to 250 nM
- IC50 (CDK1/CCNB1; [10]): > 250 nM
- IC50 (CDK4/CCND3; [11]): > 250 nM
- IC50 (CDK6/CCND1; [12]): > 250 nM

Structure (SMILES): Cn1ncc2cc(C#Cc3nccc4cnc(Nc5ccc(S(C)(=O)=O)cc5)cc34)ccc21 [Ex 856, 5-((1-methyl-1H-indazol-5-yl)ethynyl)-N-(4-(methylsulfonyl)phenyl)-2,6-naphthyridin-3-amine]
- IC50 (CDK2/CCNE1; [13]): 25 to 250 nM
- IC50 (CDK1/CCNB1; [6]): > 250 nM
- IC50 (CDK4/CCND3; [7]): > 250 nM
- IC50 (CDK6/CCND1; [8]): > 250 nM

Structure (SMILES): CC1(C)C(=O)Nc2cc(C#Cc3nccc4cnc(Nc5ccc(S(C)(=O)=O)c(Cl)c5)cc34)ccc21 [Ex 407, 6-((7-((3-chloro-4-(methylsulfonyl)phenyl)amino)-2,6-naphthyridin-1-yl)ethynyl)-3,3-dimethylindolin-2-one]
- IC50 (CDK2/CCNE1; [9]): 25 to 250 nM
- IC50 (CDK1/CCNB1; [10]): > 250 nM
- IC50 (CDK4/CCND3; [11]): > 250 nM
- IC50 (CDK6/CCND1; [12]): > 250 nM

Structure (SMILES): COC(=O)c1nc(C#Cc2nccc3cnc(Nc4ccc(S(C)(=O)=O)cc4)cc23)cnc1N [Ex 588, methyl 3-amino-6-((7-((4-(methylsulfonyl)phenyl)amino)-2,6-naphthyridin-1-yl)ethynyl)pyrazine-2-carboxylate]
- IC50 (CDK2/CCNE1; x = IC50 >250 nM, read-out: CDK2/CCNE IC50 (>250 nM column)): > 250 nM
- IC50 (CDK1/CCNB1; [10]): > 250 nM
- IC50 (CDK4/CCND3; [11]): > 250 nM
- IC50 (CDK6/CCND1; [12]): > 250 nM
